system: MCF7; test: Antiproliferative activity in human MCF7 cells after 72 hrs by MTT assay; format: functional, cell-based; details: MCF7, 72 h

| SMILES | IC50 [µM] |
| --- | --- |
| CCN1CCN(CCCCCCOC(=O)c2cc(O)c3c(c2)C(=O)c2cccc(O)c2C3=O)CC1.Cl.Cl | 3.25 |
| CCN1CCN(CCCCOC(=O)c2cc(O)c3c(c2)C(=O)c2cccc(O)c2C3=O)CC1.Cl.Cl | 5.23 |
| Cl.Cl.O=C(OCCCCN1CCN(CCO)CC1)c1cc(O)c2c(c1)C(=O)c1cccc(O)c1C2=O | 4 |
| CN1CCN(CCCCCOC(=O)c2cc(O)c3c(c2)C(=O)c2cccc(O)c2C3=O)CC1.Cl.Cl | 1.13 |
| CCN(CC)CCCOC(=O)c1cc(O)c2c(c1)C(=O)c1cccc(O)c1C2=O.Cl | 8.28 |
| Cl.O=C(OCCCCN1CCOCC1)c1cc(O)c2c(c1)C(=O)c1cccc(O)c1C2=O | 24.4 |
| CN1CCN(CCCCOC(=O)c2cc(O)c3c(c2)C(=O)c2cccc(O)c2C3=O)CC1.Cl.Cl | 6.63 |

system: not listed separately; test: Aqueous solubility of the compound in water after 48 hrs by UV spectrophotometer; format: physicochemical; details: not given

| SMILES | solubility at 48 h [mg/mL] |
| --- | --- |
| CCN1CCN(CCCCCCOC(=O)c2cc(O)c3c(c2)C(=O)c2cccc(O)c2C3=O)CC1.Cl.Cl | 10.2 |
| CCN1CCN(CCCCOC(=O)c2cc(O)c3c(c2)C(=O)c2cccc(O)c2C3=O)CC1.Cl.Cl | 10.5 |
| Cl.Cl.O=C(OCCCCN1CCN(CCO)CC1)c1cc(O)c2c(c1)C(=O)c1cccc(O)c1C2=O | 12 |
| CN1CCN(CCCCCOC(=O)c2cc(O)c3c(c2)C(=O)c2cccc(O)c2C3=O)CC1.Cl.Cl | 13.7 |
| CCN(CC)CCCOC(=O)c1cc(O)c2c(c1)C(=O)c1cccc(O)c1C2=O.Cl | 13.6 |
| Cl.O=C(OCCCCN1CCOCC1)c1cc(O)c2c(c1)C(=O)c1cccc(O)c1C2=O | 11.7 |
| CN1CCN(CCCCOC(=O)c2cc(O)c3c(c2)C(=O)c2cccc(O)c2C3=O)CC1.Cl.Cl | 14.8 |

system: HepG2; test: Antiproliferative activity in human HepG2 cells after 72 hrs by MTT assay; format: functional, cell-based; details: HepG2, 72 h

| SMILES | IC50 [µM] |
| --- | --- |
| CCN1CCN(CCCCCCOC(=O)c2cc(O)c3c(c2)C(=O)c2cccc(O)c2C3=O)CC1.Cl.Cl | 1.47 |
| CCN1CCN(CCCCOC(=O)c2cc(O)c3c(c2)C(=O)c2cccc(O)c2C3=O)CC1.Cl.Cl | 2.51 |
| Cl.Cl.O=C(OCCCCN1CCN(CCO)CC1)c1cc(O)c2c(c1)C(=O)c1cccc(O)c1C2=O | 3.65 |
| CN1CCN(CCCCCOC(=O)c2cc(O)c3c(c2)C(=O)c2cccc(O)c2C3=O)CC1.Cl.Cl | 2.95 |
| CCN(CC)CCCOC(=O)c1cc(O)c2c(c1)C(=O)c1cccc(O)c1C2=O.Cl | 2.94 |
| Cl.O=C(OCCCCN1CCOCC1)c1cc(O)c2c(c1)C(=O)c1cccc(O)c1C2=O | 6.23 |
| CN1CCN(CCCCOC(=O)c2cc(O)c3c(c2)C(=O)c2cccc(O)c2C3=O)CC1.Cl.Cl | 3.32 |

system: A549; test: Antiproliferative activity in human A549 cells after 72 hrs by MTT assay; format: functional, cell-based; details: A549, 72 h

| SMILES | IC50 [µM] |
| --- | --- |
| CCN1CCN(CCCCCCOC(=O)c2cc(O)c3c(c2)C(=O)c2cccc(O)c2C3=O)CC1.Cl.Cl | 6.42 |
| CCN1CCN(CCCCOC(=O)c2cc(O)c3c(c2)C(=O)c2cccc(O)c2C3=O)CC1.Cl.Cl | 8.56 |
| Cl.Cl.O=C(OCCCCN1CCN(CCO)CC1)c1cc(O)c2c(c1)C(=O)c1cccc(O)c1C2=O | 2.5 |
| CN1CCN(CCCCCOC(=O)c2cc(O)c3c(c2)C(=O)c2cccc(O)c2C3=O)CC1.Cl.Cl | 6.32 |
| CCN(CC)CCCOC(=O)c1cc(O)c2c(c1)C(=O)c1cccc(O)c1C2=O.Cl | 6.23 |
| Cl.O=C(OCCCCN1CCOCC1)c1cc(O)c2c(c1)C(=O)c1cccc(O)c1C2=O | 21.4 |
| CN1CCN(CCCCOC(=O)c2cc(O)c3c(c2)C(=O)c2cccc(O)c2C3=O)CC1.Cl.Cl | 2.9 |

system: HCT-116; test: Antiproliferative activity in human HCT116 cells after 72 hrs by MTT assay; format: functional, cell-based; details: HCT-116, 72 h

| SMILES | IC50 [µM] |
| --- | --- |
| CCN1CCN(CCCCCCOC(=O)c2cc(O)c3c(c2)C(=O)c2cccc(O)c2C3=O)CC1.Cl.Cl | 1.93 |
| CCN1CCN(CCCCOC(=O)c2cc(O)c3c(c2)C(=O)c2cccc(O)c2C3=O)CC1.Cl.Cl | 1.88 |
| Cl.Cl.O=C(OCCCCN1CCN(CCO)CC1)c1cc(O)c2c(c1)C(=O)c1cccc(O)c1C2=O | 0.85 |
| CN1CCN(CCCCCOC(=O)c2cc(O)c3c(c2)C(=O)c2cccc(O)c2C3=O)CC1.Cl.Cl | 1.5 |
| CCN(CC)CCCOC(=O)c1cc(O)c2c(c1)C(=O)c1cccc(O)c1C2=O.Cl | 0.65 |
| Cl.O=C(OCCCCN1CCOCC1)c1cc(O)c2c(c1)C(=O)c1cccc(O)c1C2=O | 3.29 |
| CN1CCN(CCCCOC(=O)c2cc(O)c3c(c2)C(=O)c2cccc(O)c2C3=O)CC1.Cl.Cl | 2.93 |

Reference: ChEMBL document CHEMBL3994562 (Medchemcomm, 2016)
